Measurements published in patent US9028855B2, “Plant additives and uses thereof to modulate the synthesis of membrane glycerolipids in planta” (Commissariat a l'Energie Atomique et aux Energies …, priority 2009, dated 2015).

Experiments:
enzyme MGD3 = test: MGD3::GUS, follow-up of the expression of the gene encoding the enzyme MGD3 (GUS staining); format: in vivo, A. thaliana; details: high phosphate medium + MC2 5 μM, FIG. 9
Protocol: pMGD3:GUS cells are as described by Kobayashi et al. (Kobayashi et al., 2004). In these cells, the GUS reporter is expressed under the control of the mgd3 promoter. […] Plants were examined for GUS activity by dipping the samples in a GUS staining solution (50 mM sodium phosphate buffer pH 7.0; 0.01% Triton X-100, 1 mM K3Fe(CN)6, 1 mM K4Fe(CN)6, 1 mg/ml 5-dromo-4-chloro-3-indolyl (3-D-GLUCURONIDE (X-Gluc A) and incubated at 37° C. over-night. After staining, the plants were fixed 2 hours in 50 mM sodium phosphate buffer pH 7.0; 1% glutaraldehyde; 4% formaldehyde. In response to phosphate starvation, the lipid metabolism is modified (Benning and Ohta, 2005). Plants preferentially synthesize sulpho- and galacto-lipids instead of phospholipids. Several enzymes are involved in this remobilisation.

wild type seedlings [1] = test: Starch accumulation (Lugol/iodine staining); format: in vivo, A. thaliana; details: MC2 5 μM; same response as phosphate deficiency (starch strongly accumulated), FIG. 7
Protocol: Leaves were immersed in ethanol (96%) for 6 h to remove pigment and stained with Lugol solution (Fluka) for 30 min to make the starch granules visible.

wild type seedlings [2] = test: Anthocyanins content (spectrophotometric); format: in vivo, A. thaliana; parameters: key to Antho: anthocyanin content as A530 - 2.2*A652
Protocol: Anthocyanins were extracted with propanol:HCl:H2O (81:1:18) for 5 min at room temperature and 3 min at 100° C. Samples are centrifuged for 10 min at 4° C. Supernatants were collected and absorption measured at 530 nm and […]. Anthocyanin content was calculated as A530-2.2A652 (Lange et al., 1971).

PHT1;4 = test: Chemical genetic screen, pPHT1;4::GUS line (GUS activity in root tip); format: in vivo, A. thaliana; details: plant grown on high phosphate medium (500 μM), FIG. 2
Protocol: pPHT1;4::GUS (DCJ 10) cell line is as described by Misson et al. (Misson et al., 2004). This cell line expresses the GUS reporter under the control of the promoter of the pht1;4 gene.
Plants were examined for GUS activity by dipping the samples in a GUS staining solution (50 mM sodium phosphate buffer pH 7.0; 0.01% Triton X-100, 1 mM K3Fe(CN)6, 1 mM K4Fe(CN)6, 1 mg/ml 5-dromo-4-chloro-3-indolyl (3-D-GLUCURONIDE (X-Gluc A) and incubated at 37° C. over-night. After staining, the plants were fixed 2 hours in 50 mM sodium phosphate buffer pH 7.0; 1% glutaraldehyde; 4% formaldehyde.
Chemical genetic screen was based on PHT1;4 expression using the line pPHT1;4::GUS (Misson et al., 2004). […] The formula of MC2 is the following: […]

Acid phosphatase = Acid phosphatase activity in root extract (spectrophotometric); format: in vivo; details: 10 days old plants, high phosphate medium + 5 μM MC2, FIG. 4
Protocol: FIG. 4: Acid phosphatase activity was assayed spectrophotometrically in root extract from 10 days old plants grown in high phosphate medium, in low phosphate medium or in high phosphate medium supplied with 5 μM of MC2. Values represent the mean of 3 experiments±SD.
In response to phosphate deficiency, plants are able to secrete phosphatase in soil in order to remobilize phosphate from soil.

MGD3 expression (in words) (enzyme MGD3): strongly expressed
phosphatase activity (Acid phosphatase): inducing phosphatase activity
SMILES: Cc1cccc(NC=C2C(=O)CC(C)(C)CC2=O)n1 [MC2]
starch accumulation (in words) (wild type seedlings [1]): same response
anthocyanins accumulation (in words) (wild type seedlings [2]; MC2 5 μM, FIG. 8): strong accumulation
Antho (wild type seedlings [2]; accumulation of anthocyanes, +P control 46, −P 1008): 454
expression of PHT1;4 (pPHT1;4::GUS) (PHT1;4): induce the expression of PHT1;4
